Measured values as given in the supplement of paper PMC10307832.

What was measured:
Test in all cases: relative viability (nuclei count vs DMSO), 5 days (fraction); higher = more cells survive
[1] = compound: COC1=CC(c2cc3ccccc3[nH]2)=N/C1=C\c1[nH]c(C)cc1C [Obatoclax] + CC(=O)Nc1cccc(-n2c(=O)n(C3CC3)c(=O)c3c(Nc4ccc(I)cc4F)n(C)c(=O)c(C)c32)c1 [Trametinib] (partner 0.02 µM)
In short: (§1)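 For relative viability, nuclei counts in treated wells were divided by those in vehicle wells. Lung cancer cell lines had been pin-tool dosed in 1536-well plates the day after seeding and cultured for 5 days, then fixed and stained in one step (final 0.05% Triton X-100, 1% formaldehyde, 1 ug/ml Hoechst) and imaged at 4×. Doses were one drug alone or a fixed anchor-drug dose plus five library-drug doses (not always all listed) in √10 steps, and values are duplicate-plate medians.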

[2] = compound: CC1=CC(=NN1)NC2=CC(=NC(=N2)/C=C/C3=CC=CC=C3)N4CCN(CC4)C + Cc1nc(NC(=O)N2CCC[C@H]2C(N)=O)sc1-c1ccnc(C(C)(C)C(F)(F)F)c1 [Alpelisib] (partner 2 µM)
In short: as §1

[3] = compound: COC1=CC(c2cc3ccccc3[nH]2)=N/C1=C\c1[nH]c(C)cc1C [Obatoclax] + CC1(C)CCC(c2ccc(Cl)cc2)=C(CN2CCN(c3ccc(C(=O)NS(=O)(=O)c4ccc(N[C@H](CCN5CCOCC5)CSc5ccccc5)c(S(=O)(=O)C(F)(F)F)c4)cc3)CC2)C1 [Navitoclax] (partner 0.5 µM)
In short: as §1

[4] = compound: COC1=CC(c2cc3ccccc3[nH]2)=N/C1=C\c1[nH]c(C)cc1C [Obatoclax] + Cc1nc(NC(=O)N2CCC[C@H]2C(N)=O)sc1-c1ccnc(C(C)(C)C(F)(F)F)c1 [Alpelisib] (partner 2 µM)
In short: as §1

| Cell Line | relative viability ([1]; first compound 0.01 µM) | relative viability ([1]; first compound 0.03162 µM) | relative viability ([1]; first compound 0.1 µM) | relative viability ([1]; first compound 0.3162 µM) | relative viability ([1]; first compound 1 µM) | relative viability ([2]; first compound 0.08 µM) | relative viability ([2]; first compound 0.253 µM) | relative viability ([2]; first compound 0.8 µM) | relative viability ([2]; first compound 2.53 µM) | relative viability ([2]; first compound 8 µM) | relative viability ([3]; first compound 0.01 µM) | relative viability ([3]; first compound 0.03162 µM) | relative viability ([3]; first compound 0.1 µM) | relative viability ([3]; first compound 0.3162 µM) | relative viability ([3]; first compound 1 µM) | relative viability ([4]; first compound 0.01 µM) | relative viability ([4]; first compound 0.03162 µM) | relative viability ([4]; first compound 0.1 µM) | relative viability ([4]; first compound 0.3162 µM) | relative viability ([4]; first compound 1 µM) |
| --- | --- | --- | --- | --- | --- | --- | --- | --- | --- | --- | --- | --- | --- | --- | --- | --- | --- | --- | --- | --- |
| COR-L 105 | 0.44 | 0.434 | 0.493 | 0.4 | 0.373 | 0.946 | 1.08 | 0.967 | 0.605 | 0.186 | 0.815 | 0.649 | 0.792 | 0.741 | 0.388 | 1.02 | 1.21 | 0.944 | 0.904 | 0.336 |
| LCLC-97TM1 | 0.224 | 0.177 | 0.203 | 0.193 | 0.194 | 0.225 | 0.288 | 0.191 | 0.146 | 0.111 | 0.38 | 0.439 | 0.387 | 0.346 | 0.474 | 0.27 | 0.232 | 0.283 | 0.227 | 0.293 |
| NCI-H520 | 0.675 | 0.777 | 0.86 | 0.439 | 0.269 | 0.891 | 0.937 | 0.892 | 0.498 | 0.166 | 1.1 | 1.16 | 1.07 | 0.795 | 0.288 | 0.901 | 0.953 | 0.92 | 0.7 | 0.835 |
| NCI-H1993 | 0.553 | 0.632 | 0.574 | 0.462 | 0.72 | 0.63 | – | 0.581 | 0.61 | 0.493 | 1.04 | 0.816 | 1.03 | 0.867 | 0.982 | 0.704 | 0.648 | 0.682 | 0.667 | 0.6 |
| NCI-H1437 | 0.512 | 0.471 | 0.642 | 0.498 | 0.359 | 1.02 | 1.01 | 0.881 | 0.972 | 0.285 | 1.03 | 1.1 | 1.08 | 1.1 | 0.746 | 0.97 | 0.922 | 0.962 | 1.01 | 0.88 |
| LC-2-ad | 0.954 | 0.859 | 0.885 | 0.905 | 0.969 | 0.861 | 0.781 | 0.714 | 0.0868 | 0.0702 | 0.359 | 0.446 | 0.311 | 0.26 | 0.145 | 0.892 | 0.931 | 0.884 | 0.477 | 0.655 |
| HARA | 0.658 | 0.926 | 0.83 | 0.768 | 0.705 | 0.858 | 0.85 | 0.974 | 0.121 | 0.0791 | 1.09 | 1.11 | 1.15 | 0.871 | 1.11 | 0.942 | 0.529 | 0.916 | 0.802 | 0.78 |
| NCI-H1975 | 0.407 | 0.32 | 0.213 | 0.352 | 0.206 | 0.59 | 0.655 | 0.42 | 0.141 | 0.109 | 1.18 | 1.1 | 0.975 | 0.943 | 1.01 | 0.629 | 0.666 | 0.663 | 0.476 | 0.182 |
| NCI-H522 | 0.683 | 0.765 | 0.805 | 0.783 | 0.867 | – | – | – | – | – | – | – | – | – | – | – | – | – | – | – |
| ABC-1 | – | – | – | – | – | 1.01 | 1.09 | 1.02 | 0.855 | 0.22 | – | – | – | – | – | 1.04 | 1.18 | 1.09 | 1.19 | 0.573 |
| NCI-H1563 | – | – | – | – | – | 0.896 | 0.893 | 0.782 | 0.555 | 0.392 | – | – | – | – | – | 0.917 | 0.922 | 0.934 | 0.867 | 0.791 |
| NCI-H1703 | – | – | – | – | – | 0.302 | 0.32 | 0.205 | 0.128 | 0.0994 | 1.27 | 1.34 | 0.955 | 0.385 | 0.292 | 0.41 | 0.344 | 0.412 | 0.321 | 0.276 |
| NCI-H661 | 0.585 | 0.553 | 0.593 | 0.493 | 0.473 | 0.578 | 0.749 | 0.94 | 0.455 | 0.197 | – | – | – | – | – | 0.643 | 0.507 | 0.261 | 0.458 | 0.84 |
| NCI-H1648 | 0.52 | 0.406 | 0.559 | 0.51 | 0.457 | – | – | – | – | – | – | – | – | – | – | – | – | – | – | – |
| LCLC-103H | 0.64 | 0.702 | 0.63 | 0.678 | 0.694 | 0.917 | 1.01 | 1.07 | 0.804 | 0.441 | – | – | – | – | – | 0.938 | 0.907 | 0.97 | 0.961 | 1.02 |
| SW 900 | 1.06 | 0.762 | 0.931 | 0.62 | 0.547 | – | – | – | – | – | – | – | – | – | – | – | – | – | – | – |
| EBC-1 | – | – | – | – | – | 0.83 | 0.87 | 0.788 | 0.183 | 0.128 | 0.449 | 0.379 | 0.395 | 0.16 | 0.177 | 0.82 | 0.92 | 0.902 | 0.435 | 0.251 |
| NCI-H1650 | 0.763 | 0.724 | 0.652 | 0.36 | 0.303 | – | – | – | – | – | 1.03 | 1.08 | 1.18 | 0.986 | 0.239 | – | – | – | – | – |
| NCI-H1299 | – | – | – | – | – | 1.06 | 1.08 | 1.04 | 1.1 | 0.605 | 1.04 | 1.07 | 1.04 | 1.07 | 0.997 | 1.01 | 1.1 | 0.985 | 1.04 | 1 |
| A549 | – | – | – | – | – | 0.685 | 0.684 | 0.398 | 0.0413 | 0.0242 | 1.2 | 1.29 | 1.16 | 0.682 | 0.0677 | 0.76 | 0.876 | 0.748 | 0.298 | 0.0816 |
| IA-LM | – | – | – | – | – | 0.737 | 0.799 | 0.782 | 0.461 | 0.221 | 0.852 | 0.855 | 0.666 | 0.065 | 0.0608 | 0.843 | 0.743 | 0.612 | 0.327 | 0.0686 |
